Results from patent US11046694B2, “Compounds and methods for treating bacterial infections” (Entasis Therapeutics, Inc., priority 2018, dated 2021).
Counter-ions that a name gives are not always drawn.

Key:
P. aeruginosa PBP3 = P. aeruginosa PBP3 (Pseudomonas aeruginosa, UniProt G3XD46); type: biochemical; conditions: P. aeruginosa PBP3 60 nM, BOCILLIN FL 30 nM, pH 7.0
P. aeruginosa WT (PAO1) = assay: MIC, CLSI broth microdilution, P. aeruginosa; type: cell-based; conditions: Pseudomonas aeruginosa, PAO1; CLSI broth microdilution; read-out: P. aeruginosa WT (PAO1) MIC
P. aeruginosa PBP2 = biological target: T1, P. aeruginosa PBP2 (Pseudomonas aeruginosa, UniProt Q9X6V3); type: biochemical; conditions: P. aeruginosa PBP2 300 nM, BOCILLIN FL 30 nM, pH 6.2
T1 sequence (Q9X6V3 1-646): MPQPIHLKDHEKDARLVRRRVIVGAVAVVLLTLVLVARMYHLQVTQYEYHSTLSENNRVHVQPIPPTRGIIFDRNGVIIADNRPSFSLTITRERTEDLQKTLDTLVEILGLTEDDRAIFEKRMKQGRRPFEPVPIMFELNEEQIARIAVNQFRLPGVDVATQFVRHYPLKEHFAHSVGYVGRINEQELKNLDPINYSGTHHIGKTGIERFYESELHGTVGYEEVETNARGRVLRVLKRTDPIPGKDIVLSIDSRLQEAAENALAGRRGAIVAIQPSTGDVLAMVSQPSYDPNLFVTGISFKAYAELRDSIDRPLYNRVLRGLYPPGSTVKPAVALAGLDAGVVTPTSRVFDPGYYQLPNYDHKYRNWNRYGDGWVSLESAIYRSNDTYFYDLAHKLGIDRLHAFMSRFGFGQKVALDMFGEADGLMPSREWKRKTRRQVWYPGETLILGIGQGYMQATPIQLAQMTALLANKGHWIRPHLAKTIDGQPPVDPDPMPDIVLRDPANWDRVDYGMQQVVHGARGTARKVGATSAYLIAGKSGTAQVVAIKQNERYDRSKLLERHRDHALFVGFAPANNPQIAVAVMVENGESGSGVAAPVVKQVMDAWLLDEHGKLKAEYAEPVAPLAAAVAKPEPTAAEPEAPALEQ

A. baumannii (ARC3495) = assay: MIC against A. baumannii; conditions: Acinetobacter baumannii, read-out: A. baumannii MIC (ARC3495) (mg/L)
P. aeruginosa PBP1a = P. aeruginosa PBP1a (Pseudomonas aeruginosa, UniProt Q07806); type: biochemical; conditions: P. aeruginosa PBP1a 60 nM, BOCILLIN FL 30 nM, pH 7.0
Sequence of P. aeruginosa PBP1a (Q07806 whole entry): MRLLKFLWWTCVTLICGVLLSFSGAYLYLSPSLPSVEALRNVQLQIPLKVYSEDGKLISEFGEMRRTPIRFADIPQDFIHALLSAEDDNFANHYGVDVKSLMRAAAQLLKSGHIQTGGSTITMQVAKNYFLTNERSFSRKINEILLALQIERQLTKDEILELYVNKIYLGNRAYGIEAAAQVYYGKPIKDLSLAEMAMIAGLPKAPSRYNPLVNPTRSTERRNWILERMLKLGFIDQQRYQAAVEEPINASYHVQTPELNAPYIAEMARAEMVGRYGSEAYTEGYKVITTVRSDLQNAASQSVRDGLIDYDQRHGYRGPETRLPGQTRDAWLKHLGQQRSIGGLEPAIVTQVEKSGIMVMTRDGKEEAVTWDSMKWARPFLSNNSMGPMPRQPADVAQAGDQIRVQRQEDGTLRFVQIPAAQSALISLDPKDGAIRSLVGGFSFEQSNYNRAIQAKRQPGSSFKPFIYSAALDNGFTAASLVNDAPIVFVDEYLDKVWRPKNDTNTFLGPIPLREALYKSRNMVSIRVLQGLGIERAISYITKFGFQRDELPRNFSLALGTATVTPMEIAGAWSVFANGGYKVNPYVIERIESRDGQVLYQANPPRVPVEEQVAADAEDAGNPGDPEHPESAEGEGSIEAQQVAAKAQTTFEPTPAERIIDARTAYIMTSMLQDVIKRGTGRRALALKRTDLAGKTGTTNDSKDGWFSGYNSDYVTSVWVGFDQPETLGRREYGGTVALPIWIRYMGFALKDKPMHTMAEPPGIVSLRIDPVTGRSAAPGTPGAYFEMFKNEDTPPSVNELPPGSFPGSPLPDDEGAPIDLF

[1] = tested on: K. pneumoniae (ATCC700603); assay: MIC against K. pneumoniae; conditions: Klebsiella pneumoniae, ATCC700603, read-out: K. pneumoniae MIC (ATCC700603)
E. coli (ATCC25922) = assay: MIC against E. coli; conditions: Escherichia coli, ATCC25922, read-out: E. coli MIC (ATCC25922) (mg/L)

Sequence of P. aeruginosa PBP3 (G3XD46 whole entry): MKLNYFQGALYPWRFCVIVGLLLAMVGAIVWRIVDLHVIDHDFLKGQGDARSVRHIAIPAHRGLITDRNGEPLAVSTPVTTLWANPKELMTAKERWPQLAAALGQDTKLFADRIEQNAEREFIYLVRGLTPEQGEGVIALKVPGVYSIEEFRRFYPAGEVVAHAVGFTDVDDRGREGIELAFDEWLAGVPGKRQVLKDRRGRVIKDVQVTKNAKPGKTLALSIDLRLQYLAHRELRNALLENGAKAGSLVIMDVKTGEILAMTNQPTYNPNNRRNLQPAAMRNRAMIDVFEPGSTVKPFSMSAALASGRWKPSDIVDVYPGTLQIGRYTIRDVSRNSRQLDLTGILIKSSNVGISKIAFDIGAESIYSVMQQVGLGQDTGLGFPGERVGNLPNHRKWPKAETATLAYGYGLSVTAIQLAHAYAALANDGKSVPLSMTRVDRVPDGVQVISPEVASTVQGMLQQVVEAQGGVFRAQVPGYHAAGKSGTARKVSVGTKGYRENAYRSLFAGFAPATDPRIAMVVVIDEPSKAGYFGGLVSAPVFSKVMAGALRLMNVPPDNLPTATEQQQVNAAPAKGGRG

Row | Structure (SMILES) | PBP3 acylation rate, k(on) (M^−1 · s^−1) (P. aeruginosa PBP3) | MIC (P. aeruginosa WT (PAO1)) [µg/mL] | PBP2 acylation rate, k(on) (M^−1 · s^−1) (P. aeruginosa PBP2) | MIC (A. baumannii (ARC3495)) [mg/L] | PBP1a acylation rate, k(on) (M^−1 · s^−1) (P. aeruginosa PBP1a) | MIC [1] [µg/mL] | MIC (E. coli (ATCC25922)) [mg/L]
1 | Cn1ncc2c1[C@@H](CN)N1C[C@@H]2N(OS(=O)(=O)O)C1=O [Comparator 1, reference compound] | * (* represents a k(on) < 100 M^−1 · s^−1) | < 8 | *** (*** represents a k(on) > 5,000 M^−1 · s^−1) | > 16 | * (* represents a k(on) < 100 M^−1 · s^−1) | < 8 | < 8
2 | CNC(=O)[C@@H]1c2c(cnn2C)[C@@H]2CN1C(=O)N2OS(=O)(=O)O [Comparator 2, reference compound] | ** (** represents a k(on) of 100 to 10,000 M^−1 · s^−1) | > 16 | * (* represents a k(on) < 100 M^−1 · s^−1) | > 16 | * (* represents a k(on) < 100 M^−1 · s^−1) | > 16 | < 8
3 | CN(C)/C(=N\O)[C@@H]1c2c(cnn2C)[C@@H]2CN1C(=O)N2OS(=O)(=O)O [Example 2, (4R,8S)-8-((Z)—N′-hydroxy-N,N-dimethylcarbamimidoyl)-1-methyl-6-oxo-4,8-dihydro-1H-4,7-methanopyrazolo[3,4-e][1,3]diazepin-5(6H)-yl hydrogen sulfate] | *** (*** represents a k(on) > 10,000 M^−1 · s^−1) | > 16 | * (* represents a k(on) < 100 M^−1 · s^−1) | 8 to 16 | ** (** represents a k(on) of 100 to 10,000 M^−1 · s^−1) | 8 to 16 | 8 to 16
4 | Cn1ncc2c1[C@@H](/C(N)=N/O)N1C[C@@H]2N(OS(=O)(=O)[O-])C1=O.[Na+] [Example 3, Sodium (4R,8S)-8-((Z)—N′-hydroxycarbamimidoyl)-1-methyl-6-oxo-4,8-dihydro-1H-4,7-methanopyrazolo[3,4-e][1,3]diazepin-5(6H)-yl sulfate] | ** (** represents a k(on) of 100 to 10,000 M^−1 · s^−1) | > 16 | * (* represents a k(on) < 100 M^−1 · s^−1) | > 16 | * (* represents a k(on) < 100 M^−1 · s^−1) | < 8 | < 8
5 | CN/C(=N\OC)[C@@H]1c2c(cnn2C)[C@@H]2CN1C(=O)N2OS(=O)(=O)O [Example 4, (4R,8S)-8-((Z)—N′-methoxy-N-methylcarbamimidoyl)-1-methyl-6-oxo-4,8-dihydro-1H-4,7-methanopyrazolo[3,4-e][1,3]diazepin-5(6H)-yl hydrogen sulfate] | *** (*** represents a k(on) > 10,000 M^−1 · s^−1) | > 16 | * (* represents a k(on) < 100 M^−1 · s^−1) | > 16 | ** (** represents a k(on) of 100 to 10,000 M^−1 · s^−1) | > 16 | < 8
6 | Cn1ncc2c1[C@@H](C1=NOC(CO)C1)N1C[C@@H]2N(OS(=O)(=O)O)C1=O (stereo partly drawn) [Example 38, (4R,8S)-8-(5-(hydroxymethyl)-4,5-dihydroisoxazol-3-yl)-1-methyl-6-oxo-4,8-dihydro-1H-4,7-methanopyrazolo[3,4-e][1,3]diazepin-5(6H)-yl hydrogen sulfate] | * (* represents a k(on) < 100 M^−1 · s^−1) | > 16 | * (* represents a k(on) < 100 M^−1 · s^−1) | > 16 | * (* represents a k(on) < 100 M^−1 · s^−1) | > 16 | 8 to 16
7 | CN/C(=N\O)[C@@H]1c2c(cnn2CCN)[C@@H]2CN1C(=O)N2OS(=O)(=O)O [Example 47, (4R,8S)-1-(2-aminoethyl)-8-((Z)—N′-hydroxy-N-methylcarbamimidoyl)-6-oxo-4,8-dihydro-1H-4,7-methanopyrazolo[3,4-e][1,3]diazepin-5(6H)-yl hydrogen sulfate] | *** (*** represents a k(on) > 10,000 M^−1 · s^−1) | < 8 | * (* represents a k(on) < 100 M^−1 · s^−1) | < 8 | ** (** represents a k(on) of 100 to 10,000 M^−1 · s^−1) | < 8 | < 8
8 | Cn1ncc2c1[C@@H](/C(=N/O)NCc1nc(N)cs1)N1C[C@@H]2N(OS(=O)(=O)O)C1=O [Example 51, (4R,8S)-8-((Z)—N-((4-aminothiazol-2-yl)methyl)-N′-hydroxycarbamimidoyl)-1-methyl-6-oxo-4,8-dihydro-1H-4,7-methanopyrazolo[3,4-e][1,3]diazepin-5(6H)-yl hydrogen sulfate] | ** (** represents a k(on) of 100 to 10,000 M^−1 · s^−1) | > 16 | * (* represents a k(on) < 100 M^−1 · s^−1) | > 16 | ** (** represents a k(on) of 100 to 10,000 M^−1 · s^−1) | > 16 | < 8
9 | Cn1ncc2c1[C@@H](/C(=N/OC(=O)NC(C)(C)C(=O)O)NCc1nc(N)cs1)N1C[C@@H]2N(OS(=O)(=O)O)C1=O [Example 52, (Z)-1-(4-aminothiazol-2-yl)-8,8-dimethyl-3-((4R,8S)-1-methyl-6-oxo-5-(sulfooxy)-4,5,6,8-tetrahydro-1H-4,7-methanopyrazolo[3,4-e][1,3]diazepin-8-yl)-6-oxo-5-oxa-2,4,7-triazanon-3-en-9-oic acid] | ** (** represents a k(on) of 100 to 10,000 M^−1 · s^−1) | > 16 | * (* represents a k(on) < 100 M^−1 · s^−1) | > 16 | ** (** represents a k(on) of 100 to 10,000 M^−1 · s^−1) | > 16 | < 8
10 | Cn1ncc2c1[C@@H](c1noc(=O)n1Cc1nc(N)cs1)N1C[C@@H]2N(OS(=O)(=O)O)C1=O [Example 53, (4R,8S)-8-(4-((4-aminothiazol-2-yl)methyl)-5-oxo-4,5-dihydro-1,2,4-oxadiazol-3-yl)-1-methyl-6-oxo-4,8-dihydro-1H-4,7-methanopyrazolo[3,4-e][1,3]diazepin-5(6H)-yl hydrogen sulfate] | ** (** represents a k(on) of 100 to 10,000 M^−1 · s^−1) | > 16 | * (* represents a k(on) < 100 M^−1 · s^−1) | > 16 | ** (** represents a k(on) of 100 to 10,000 M^−1 · s^−1) | > 16 | < 8
11 | CCN1CCN(C(=O)NC/C(=N\O)[C@@H]2c3c(cnn3C)[C@@H]3CN2C(=O)N3OS(=O)(=O)O)C(=O)C1=O [Example 55, (4R,8S)-8-((E)-2-(4-ethyl-2,3-dioxopiperazine-1-carboxamido)-1-(hydroxyimino)ethyl)-1-methyl-6-oxo-4,8-dihydro-1H-4,7-methanopyrazolo[3,4-e][1,3]diazepin-5(6H)-yl hydrogen sulfate] | * (* represents a k(on) < 100 M^−1 · s^−1) | > 16 | * (* represents a k(on) < 100 M^−1 · s^−1) | > 16 | * (* represents a k(on) < 100 M^−1 · s^−1) | > 16 | < 8
